Patent US9204653B2, “5-fluoro pyrimidine derivatives” (DOW AGROSCIENCES LLC, priority 2008, dated 2015)
Where two headings read alike, the source gives them in different places.

Test system: Mycosphaerella graminicola; Anamorph: Septoria tritici; Bayer Code SEPTTR
Test: Leaf blotch of wheat, foliar fungicide treatment, one day protectant (1DP) or three day curative (3DC)
Type: in vivo, Septoria tritici on wheat plants (variety Yuma)
Conditions: Zymoseptoria tritici, rating of percent disease control
[1] = 24 h, one day protectant (1DP), read-out: SETTTR 1DP 25 ppm
[2] = 24 h, one day protectant (1DP), read-out: SEPTTR 1DP 100 ppm
[3] = 72 h, three day curative (3DC), read-out: SEPTTR 3DC 25 ppm
[4] = 72 h, three day curative (3DC), read-out: SEPTTR 3DC 100 ppm

Compound	pest or weed control at 25 ppm [1] [%]	pest or weed control at 100 ppm [2] [%]	pest or weed control at 25 ppm [3] [%]	pest or weed control at 100 ppm [4] [%]
CCOC(=O)Nc1nc(OCc2ccc(C)cc2)ncc1F [Compound 490]	76 to 100	76 to 100	76 to 100	76 to 100
Fc1ccc(COc2ncc(F)c(NNC3CCCCC3)n2)cc1 [Compound 492]	0 to 25	26 to 50	0 to 25	26 to 50
Fc1cnc(OCc2ccccc2)nc1NNC1CCCCC1 [Compound 493]	0 to 25	26 to 50	0 to 25	0 to 25
CN(C)/C=N/c1nc(OCc2cccc(F)c2)ncc1F [Compound 494]	76 to 100	76 to 100	76 to 100	76 to 100
Cc1ccc(COc2ncc(F)c(NC(=O)Cc3ccccc3)n2)cc1 [Compound 497]	51 to 75	76 to 100	0 to 25	26 to 50
CCOCNc1nc(OCc2cccc(F)c2)ncc1F [Compound 498]	76 to 100	76 to 100	76 to 100	76 to 100
Cc1c(F)c(F)c(COc2ncc(F)c(N)n2)c(F)c1F [Compound 500]	76 to 100	76 to 100	76 to 100	76 to 100
O=C(Nc1nc(OCc2ccc(F)cc2)ncc1F)C(F)F [Compound 501]	76 to 100	76 to 100	76 to 100	76 to 100
CC(Oc1ncc(F)c(N)n1)c1cc(Cl)c(Cl)cc1Cl (stereo not drawn) [Compound 502]	0 to 25	0 to 25	0 to 25	0 to 25
CC[Si](CC)(CC)Nc1nc(OCc2cccs2)ncc1F [Compound 503]	76 to 100	76 to 100	76 to 100	76 to 100
N#Cc1cccc(COc2ncc(F)c(NC(=S)NCc3ccccc3F)n2)c1 [Compound 504]	0 to 25	51 to 75	0 to 25	0 to 25
Fc1cnc(OCc2cccs2)nc1NCOCc1ccccc1 [Compound 506]	26 to 50	76 to 100	0 to 25	0 to 25
CC[Si](CC)(CC)Nc1nc(OCCc2ccc(Cl)cc2)ncc1F [Compound 507]	51 to 75	76 to 100	0 to 25	76 to 100
Nc1nc(OCc2ccsc2)ncc1F [Compound 508]	76 to 100	76 to 100	76 to 100	76 to 100
Nc1nc(OCC2CC2(F)F)ncc1F (stereo not drawn) [Compound 509]	0 to 25	0 to 25	26 to 50	0 to 25
Cn1ccc2cc(COc3ncc(F)c(N)n3)ccc21 [Compound 511]	51 to 75	51 to 75	26 to 50	26 to 50
CCC(Oc1ncc(F)c(N)n1)c1ccc(F)cc1 (stereo not drawn) [Compound 513]	76 to 100	76 to 100	76 to 100	76 to 100
Fc1ccc(COc2ncc(F)c(NNc3ccccc3Cl)n2)cc1 [Compound 515]	0 to 25	76 to 100	0 to 25	0 to 25
CCOCNc1nc(OCc2cccc(C#N)c2)ncc1F [Compound 516]	76 to 100	76 to 100	76 to 100	76 to 100
COC(=O)Oc1ncc(F)c(/N=C/N(C)C)n1 [Compound 517]	76 to 100	76 to 100	76 to 100	76 to 100
CCCCN(C)/C=N/c1nc(OCc2ccc(F)cc2)ncc1F [Compound 518]	76 to 100	76 to 100	76 to 100	76 to 100
COc1ccc(COc2ncc(F)c(NC(=O)Nc3ccccc3F)n2)cc1F [Compound 519]	0 to 25	0 to 25	0 to 25	0 to 25
N#Cc1ccnc(COc2ncc(F)c(N)n2)c1 [Compound 522]	0 to 25	26 to 50	0 to 25	0 to 25

Compound	pest or weed control at 25 ppm [1] [%]	pest or weed control at 100 ppm [2] [%]	pest or weed control at 25 ppm [3] [%]	pest or weed control at 100 ppm [4] [%]
COc1ccc(OC(=O)Oc2ncc(F)c(/N=C/N(C)C)n2)cc1 [Compound 523]	76 to 100	76 to 100	76 to 100	76 to 100
O=[N+]([O-])c1ccccc1SNc1nc(OCc2cc(F)c(F)c(F)c2)ncc1F [Compound 525]	76 to 100	76 to 100	76 to 100	76 to 100
O=[N+]([O-])c1ccccc1SNc1nc(OCc2ccc(F)c(C(F)(F)F)c2)ncc1F [Compound 527]	51 to 75	76 to 100	0 to 25	0 to 25
CCCNC(=S)Nc1nc(OCc2cccs2)ncc1F [Compound 528]	76 to 100	76 to 100	0 to 25	51 to 75
O=C(Nc1ccsc1)Nc1nc(OCCNc2ccccc2)ncc1F [Compound 529]	0 to 25	0 to 25	0 to 25	0 to 25
CN1CCCC/C1=N\c1nc(OCc2cccs2)ncc1F [Compound 530]	76 to 100	76 to 100	51 to 75	76 to 100
COc1cccc(COc2ncc(F)c(NC(=O)OCc3ccccc3)n2)c1 [Compound 531]	76 to 100	76 to 100	76 to 100	76 to 100
COc1cccc(COc2ncc(F)c(N/N=C/c3ncc[nH]3)n2)c1 [Compound 532]	26 to 50	51 to 75	0 to 25	26 to 50
CCC(C)/C(C)=N/Nc1nc(OCc2ccc(C)cc2)ncc1F (stereo not drawn) [Compound 533]	51 to 75	51 to 75	0 to 25	26 to 50
CCCNC(=O)Nc1nc(OCc2cccc(OC)c2)ncc1F [Compound 534]	0 to 25	26 to 50	0 to 25	26 to 50
COc1cccc(COc2ncc(F)c(NC(=O)Nc3ccccc3F)n2)c1 [Compound 535]	0 to 25	0 to 25	0 to 25	0 to 25
CCCNC(=O)Nc1nc(OCc2ccc(C)cc2)ncc1F [Compound 536]	0 to 25	0 to 25	26 to 50	26 to 50
CCCCOc1ccc(COc2ncc(F)c(N)n2)cc1 [Compound 537]	76 to 100	76 to 100	76 to 100	76 to 100
Fc1ccccc1NC(=S)Nc1nc(OCc2ccccc2)ncc1F [Compound 539]	76 to 100	76 to 100	0 to 25	0 to 25
Nc1nc(OCc2ccc(Cl)cc2Cl)ncc1F [Compound 540]	76 to 100	76 to 100	76 to 100	76 to 100
COc1ccccc1COc1ncc(F)c(/N=C/N2CCOCC2)n1 [Compound 541]	76 to 100	76 to 100	76 to 100	76 to 100
CCOCc1cccc(COc2ncc(F)c(N)n2)c1 [Compound 543]	76 to 100	76 to 100	76 to 100	76 to 100
CC(Oc1ncc(F)c(N)n1)c1c(F)c(F)c(F)c(F)c1F (stereo not drawn) [Compound 544]	0 to 25	26 to 50	0 to 25	0 to 25
CN(C)CCOc1ncc(F)c(N)n1 [Compound 545]	0 to 25	26 to 50	0 to 25	51 to 75
Nc1nc(COc2ccc(COc3ncc(F)c(N)n3)cc2)ncc1F [Compound 546]	51 to 75	51 to 75	51 to 75	0 to 25
Nc1nc(OCc2ccc(F)c(Cl)c2)ncc1F [Compound 547]	76 to 100	76 to 100	76 to 100	76 to 100
CC(C)NC(=O)Nc1nc(OCc2cccc(C#N)c2)ncc1F [Compound 548]	0 to 25	0 to 25	0 to 25	0 to 25
